This test concerns HUVEC E-selectin immunostaining, imaging, 16 h. The experiment in a line: endothelial E-selectin upregulation by compounds – imaging, HUVEC, cherry-picked samples, dose response (AID 977605).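 Further: signal is the share of imaged cells scored positive for E-selectin.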
Take `FC(F)(F)c1ccc2c(c1)N1CCCC1CN2` (stereo not given): the AC40 is 7.71 µM.

For the molecule `Cc1cccc(NC(=O)NCc2ccc3c(c2)cc(C)n3C)c1`, the AC40 was 12 µM. The figure for `Cc1cc2c(SCc3ccccc3Cl)nc(N)nc2nc1C` is 11.4 µM; for `Cc1cc2cc(CNC(=O)Nc3cccc(Cl)c3)ccc2n1C` it is 10.8 µM; for `COc1ccc(NC(=O)N(C)C[C@H]2Oc3ccc(NS(=O)(=O)c4cccs4)cc3C(=O)N([C@H](C)CO)C[C@@H]2C)cc1` it is 17.7 µM. Consider `Cc1cccc(-c2cc(N3CCCN(C)CC3)n3nccc3n2)c1`, for which the AC40 was 5.24 µM. The value for `COc1ccc(CNC(=O)c2cc3c(c(-c4cccc(-c5cccc(C#N)c5)c4)n2)[C@H](CCO)N([S@@](=O)C(C)(C)C)C3)cc1` was 19.4 µM. On to `CO[C@@H]1CN(C)C(=O)c2ccc(NC(=O)Nc3ccc(F)cc3)cc2OC[C@@H](C)N(C(=O)c2ccc(F)cc2)C[C@H]1C`, for which the AC40 was 12.4 µM.

In the case of `Cc1cc2ccccc2n1CCNC(=O)COc1ccc2ccccc2c1`, the AC40 is 11.3 µM.

For the molecule `Cc1cc(C)c(S(=O)(=O)NCCn2c(C)cc3ccccc32)c(C)c1`, the AC40 is 14.3 µM.

(Values after PubChem BioAssay AID977605 (Broad Institute, 2014).)
